# According to US7723320B2, “Use of estrogen compounds to increase libido in women” (Pantarhei Bioscience B.V., priority 2001, dated 2010):
# Read-outs that look alike come from different tables or passages of the source.
# Columns and labels:
# [1] = Single dose po/sc bioavailability and elimination half-life study; format: in vivo; settings: rat, plasma, female Sprague Dawley rats; for bioavailability: po
# Protocol: To evaluate the oral (po) and subcutaneous (sc) bioavailability of estetrol (E4) and to determine the elimination half-life, single dose studies were performed in female Sprague Dawley rats followed by frequent blood sampling over a 24 hours interval.
# Female Sprague Dawley rats were equipped with a permanent silatic heart catheter, as described by Kuipers et al. (1985, Gastroenterology, 88, 403-411). Rats were allowed to recover from surgery for 5 days and were than administered 0.05, 0.5, or 5 mg/kg E4 in 0.5 ml arachis oil. For sc administration, E4 was injected in the neck area using a 1 ml syringe and 20 g needle. For po administration of E4, rats were lightly anaesthesized with halothene/N2O/O2 and E4 was directly applied intragastrically using a plastic stomach intubator. Blood samples were subsequently collected via the heart catheter in heparinized tubes at 0.5, 1, 2, 4, 8 and 24 hours. Erytlrocytes were removed by centrifugation at 5000×g for 10 minutes at 4° C. and blood plasma was stored at −20° C. After thawing the plasma samples, liquid-liquid extraction (hexane/diethylether) was employed to prepare the E4-containing plasma samples for HPLC analysis (Perkin Elmer 200) and tandem mass spectrometry using a PE Sciex 3000 tandem mass spectrometer and APCI interface. With each sample batch, a calibration curve with 6 calibrators was recorded. The calibration curve was calculated using linear regression (correlation coefficient>0.98), which permitted quantitation of plasma concentrations. For each rat plasma, sampled at different time intervals, data were collected.
# Plasma E4 concentration data were analysed with “WinNonLin, edition 3.1” and involved pharmacokinetic parameters for Cmax, half-life and AUC0-24.
# human ERα = target: T1, human ERα (Homo sapiens, UniProt P03372); assay: Competitive steroid binding assay, ERα; settings: for inhibition at 0.003 µM: E4 3 nM; for inhibition at 0.01 µM: E4 10 nM; for inhibition at 0.03 µM: E4 0.03 μM; for inhibition at 0.1 µM: E4 0.1 μM; for inhibition at 0.3 µM: E4 0.3 μM
# T1 sequence (P03372 1-595): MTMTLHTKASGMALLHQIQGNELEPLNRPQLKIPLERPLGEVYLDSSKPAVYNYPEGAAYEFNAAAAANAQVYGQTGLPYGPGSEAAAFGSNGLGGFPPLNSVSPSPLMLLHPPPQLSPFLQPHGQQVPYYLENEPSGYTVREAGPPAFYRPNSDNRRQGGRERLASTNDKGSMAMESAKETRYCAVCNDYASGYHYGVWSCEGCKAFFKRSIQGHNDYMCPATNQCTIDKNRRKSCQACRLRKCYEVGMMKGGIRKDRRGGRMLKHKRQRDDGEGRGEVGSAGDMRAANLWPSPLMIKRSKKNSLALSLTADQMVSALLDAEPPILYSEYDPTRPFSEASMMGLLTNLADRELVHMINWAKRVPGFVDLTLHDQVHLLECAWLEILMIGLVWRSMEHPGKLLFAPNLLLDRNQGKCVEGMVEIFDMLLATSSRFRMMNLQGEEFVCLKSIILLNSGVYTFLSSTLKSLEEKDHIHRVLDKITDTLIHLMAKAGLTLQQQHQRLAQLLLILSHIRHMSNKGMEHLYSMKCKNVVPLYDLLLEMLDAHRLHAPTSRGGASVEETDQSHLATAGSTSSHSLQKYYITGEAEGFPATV
# human ERβ = target: T2, human ERβ (Homo sapiens, UniProt Q92731); assay: Competitive steroid binding assay, ERβ; settings: read-out: Percent inhibition of specific binding in ERβ steroid binding assay; for inhibition at 0.03 µM: E4 0.03 μM; for inhibition at 0.1 µM: E4 0.1 μM; for inhibition at 0.3 µM: E4 0.3 μM; for inhibition at 1 µM: E4 1 μM
# T2 construct: made in house; host or cells: Sf9 insect cells
# postmenopausal women = assay: Clinical study of libido in postmenopausal women; format: in vivo, human; settings: 4 months
# Protocol: In a baseline cycle, coitus frequency and sexual satisfaction (female orgasm) are recorded.
# Each participant receives blinded medication in 2 differently labeled bottles, filled with tablets. One bottle comprises tablets that contain 2 mg estetrol, whilst the other bottle contains identical placebo tablets. The participants are allowed to choose from which bottle to take a tablet, but are instructed not to use more than 1 tablet per 24 hours and not more than 2 tablets a week. The total duration of the study is 4 months.
# [2] = tritium labeled, intravenous, two adult women; cited from earlier work
# [3] = target: T3, estrogen receptor in the human endometrium (Homo sapiens, UniProt P03372); settings: Tseng et al., 1976; cited from earlier work
# T3 construct: estrogen receptors in the human endometrium; host or cells: human endometrium (nuclei)
# T3 sequence (P03372 1-595): T1 sequence (P03372 1-595)
# [4] = target: T4, rat uterine cytosol estrogen receptor (Rattus norvegicus, UniProt P06211); settings: cited from earlier work
# T4 construct: rat uterine cytosol estrogen receptor; host or cells: rat uterus (cytosol / nuclear fraction)
# T4 sequence (P06211 1-600): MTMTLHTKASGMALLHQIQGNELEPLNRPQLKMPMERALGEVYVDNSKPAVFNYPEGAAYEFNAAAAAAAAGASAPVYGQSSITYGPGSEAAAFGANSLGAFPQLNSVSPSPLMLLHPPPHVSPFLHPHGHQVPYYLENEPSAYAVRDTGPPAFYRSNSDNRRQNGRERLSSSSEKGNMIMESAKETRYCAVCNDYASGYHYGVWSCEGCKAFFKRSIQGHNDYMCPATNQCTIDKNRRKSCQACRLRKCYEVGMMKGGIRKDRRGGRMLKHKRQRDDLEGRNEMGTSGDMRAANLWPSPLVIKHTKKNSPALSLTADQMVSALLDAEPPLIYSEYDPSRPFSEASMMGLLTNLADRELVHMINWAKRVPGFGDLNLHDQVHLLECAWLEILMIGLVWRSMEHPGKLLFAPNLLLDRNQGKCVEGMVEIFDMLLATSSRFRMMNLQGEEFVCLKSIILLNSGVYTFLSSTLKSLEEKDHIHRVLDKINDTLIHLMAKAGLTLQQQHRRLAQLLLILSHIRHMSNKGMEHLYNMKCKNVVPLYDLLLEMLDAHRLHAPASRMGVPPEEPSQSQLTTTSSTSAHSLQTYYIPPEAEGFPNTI
# [5] = Test 1, read-out: Percent inhibition of specific binding in ERα steroid binding assay
# [6] = Test 2, read-out: Percent inhibition of specific binding in ERα steroid binding assay
# [7] = Test 3, read-out: Percent inhibition of specific binding in ERα steroid binding assay
# T2 sequence (Q92731 whole entry): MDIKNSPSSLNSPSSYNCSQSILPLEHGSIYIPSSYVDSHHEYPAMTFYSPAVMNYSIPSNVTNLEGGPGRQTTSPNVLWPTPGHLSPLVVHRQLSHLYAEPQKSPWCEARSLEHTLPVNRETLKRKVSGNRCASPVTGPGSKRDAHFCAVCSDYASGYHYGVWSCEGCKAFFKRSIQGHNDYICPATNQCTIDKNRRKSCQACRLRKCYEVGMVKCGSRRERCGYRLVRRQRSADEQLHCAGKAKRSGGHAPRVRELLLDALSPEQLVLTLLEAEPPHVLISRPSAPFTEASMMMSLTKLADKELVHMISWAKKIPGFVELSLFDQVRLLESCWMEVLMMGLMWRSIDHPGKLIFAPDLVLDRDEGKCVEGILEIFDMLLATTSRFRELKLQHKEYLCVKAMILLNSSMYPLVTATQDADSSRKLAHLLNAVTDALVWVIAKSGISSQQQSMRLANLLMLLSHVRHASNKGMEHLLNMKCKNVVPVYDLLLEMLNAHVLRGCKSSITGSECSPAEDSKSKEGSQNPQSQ
smiles,measurement,setting,value
"C[C@]12CC[C@@H]3c4ccc(O)cc4CC[C@H]3[C@@H]1[C@@H](O)[C@@H](O)[C@@H]2O [E4, 1,3,5(10)-estratrien-3,15α,16α,17β-tetrol]",half-life,"[1]; other: subcutaneous and oral, sc and po single dose",2 to 3 h
same,bioavailability,"[1]; single dose 5.0 mg/kg, read-out: oral bioavailability relative to sc administered E4",30 to 60%
same,bioavailability,"[1]; single dose 0.05, 0.5 mg/kg, read-out: oral bioavailability relative to sc administration",80 to 100%
same,inhibition at 0.003 µM,human ERα; [5],26%
same,inhibition at 0.003 µM,human ERα; [6],17%
same,inhibition at 0.003 µM,human ERα; [7],11%
same,inhibition at 0.01 µM,human ERα; [5],43%
same,inhibition at 0.01 µM,human ERα; [6],32%
same,inhibition at 0.01 µM,human ERα; [7],28%
same,inhibition at 0.03 µM,human ERα; [5],64%
same,inhibition at 0.03 µM,human ERα; [6],66%
same,inhibition at 0.03 µM,human ERα; [7],63%
same,inhibition at 0.1 µM,human ERα; [5],83%
same,inhibition at 0.1 µM,human ERα; [6],85%
same,inhibition at 0.1 µM,human ERα; [7],86%
same,inhibition at 0.3 µM,human ERα; [5],92%
same,inhibition at 0.3 µM,human ERα; [6],94%
same,inhibition at 0.3 µM,human ERα; [7],101%
same,inhibition at 1 µM,"human ERα; E4 1 μM, Test 1, read-out: Percent inhibition of specific binding in ERα steroid binding assay",98%
same,Relative ERα/ERβ preference,human ERα; from Ki values for ERα and ERβ,400%
same,inhibition at 0.03 µM,human ERβ; Test 1,19%
same,inhibition at 0.03 µM,human ERβ; Test 2,25%
same,inhibition at 0.03 µM,human ERβ; Test 3,30%
same,inhibition at 0.1 µM,human ERβ; Test 1,56%
same,inhibition at 0.1 µM,human ERβ; Test 2,54%
same,inhibition at 0.1 µM,human ERβ; Test 3,50%
same,inhibition at 0.3 µM,human ERβ; Test 1,74%
same,inhibition at 0.3 µM,human ERβ; Test 2,74%
same,inhibition at 0.3 µM,human ERβ; Test 3,77%
same,inhibition at 1 µM,human ERβ; Test 1,87%
same,inhibition at 1 µM,human ERβ; Test 2,90%
same,inhibition at 1 µM,human ERβ; Test 3,95%
same,use of estetrol containing tablets versus placebo tablets,postmenopausal women; blinded free choice between two bottles,significantly more
same,libido and sexual enjoyment in comparison to baseline,"postmenopausal women; oral 2 mg tablets on demand, postmenopausal women",improved libido and sexual enjoyment
same,undesirable side-effects,"postmenopausal women; oral 2 mg tablets, max 2 tablets a week",no undesirable side-effects are reported
same,excretion,[2],rapidly and completely excreted in urine as the glucosiduronate
same,metabolism,[2],virtually no metabolism except for conjugation
same,relative binding constant compared to 17β-estradiol (100%),[3],6.25%
same,"relative binding affinity, of 17β-estradiol (100%)",[4],0.5%
